{"source": "patent US8697123B2", "about": "“Medication on the basis of 3,3′-diindolylmethane (DIM) with high-bioavailability and its use in treatment of human hyperplastic and inflammatory diseases” (Zakrytoye akstionernoye obschestvo “VELES FARMA”, priority 2010, dated 2014)", "key": {"[1]": {"test": "DIM concentration in patients' blood plasma", "format": "in vivo, human", "settings": "dose 100 mg", "excerpt": "Study of DIM Concentration in Patients' Blood Plasma These differences are probably attributed to effective therapeutic DIM concentrations reached in the peripheral blood and target tissues in response to DIM-HB treatment."}, "[2]": {"design": "species or system rats", "settings": "rat, in vivo, 200 mg/kg", "method": "Concentration of 3,3′-diindolylmethane (μg/ml) in the Blood Plasma of Experimental Animals Given 200.0 mg/kg of 3,3′-diindolylmethane Substance Intrastomachically.\nThe results of measurements of 3,3′-diindolylmethane substance concentration in the blood plasma of rats given the substance intrastomachically are shown in Table 1.\n3,3′-diindolylmethane Concentration (μg/ml) in the Blood Plasma of Experimental Animals Given […] of High-Bioavailability 3,3′-diindolylmethane Intrastomachically.\nThe results of measurements of 3,3′-diindolylmethane substance concentration in the blood plasma of rats given the substance intrastomachically are shown in Table 2."}, "[3]": {"test": "Clinical efficiency of DIM-HB and crystalline DIM in equal doses", "format": "in vivo, human", "excerpt": "All classical studies compared the efficiencies of DIM-HB and crystalline DIM in equal doses.\nThese differences are probably attributed to effective therapeutic DIM concentrations reached in the peripheral blood and target tissues in response to DIM-HB treatment."}}, "data": [{"molecule": "c1ccc2c(Cc3c[nH]c4ccccc34)c[nH]c2c1", "note": "[Crystalline DIM, 3,3′-diindolylmethane]", "values": [{"measurement": "DIM concentration in the plasma", "setting": "[1]", "value": "20 to 30", "unit": "ng/mL"}, {"measurement": "maximum concentration in the system blood flow", "setting": "[2]", "value": "0.13 to 0.17", "unit": "µg/mL"}, {"measurement": "minimum concentration 12 hours after administration", "setting": "[2]", "value": "less than 0.03 μg/ml"}, {"measurement": "time at which the maximum concentration was observed", "setting": "[2]", "value": "about 1 hour"}, {"measurement": "dynamics in all study groups of patients in response to treatment", "setting": "[3]", "value": "no dynamics at all"}]}]}
